Test results: patent US20080299228A1, “TOPICAL COMPOSITIONS COMPRISING A MACROMOLECULE AND METHODS OF USING SAME” (priority 2007, published 2008)

Experiment: Excipient compatibility screening with sodium thiosulfate (appearance)
Type: physicochemical
Details: added to the gel formulation
Procedure: During preformulation studies, sodium thiosulfate and methionine were identified as effective antioxidants for PTH(1-34). […] Sodium thiosulfate was assayed in the gel formulations listed in Table 21 in the absence of PTH(1-34) in order to identify which excipients were incompatible with sodium thiosulfate. Gel formulations were prepared according to the method described in Example 8. LDPE dropper bottles (5 mL) were purchased from IntraPac Group and over wrap foil (FR-2175) was obtained from Covalence Coated Products. The appearance of all samples was noted initially and after one week of storage at 20° C. protected from light.

O=S([O-])([O-])=S.[Na+].[Na+] [sodium thiosulfate]
compatibility with the gel formulation: a yellowish precipitate formed
